Data on 14 molecules can be found in patent US12440484B2, “1,3,4-oxadiazole homophthalimide derivative compounds as histone deacetylase 6 inhibitor, and the pharmaceutical composition comprising the same” (Chong Kun Dang Pharmaceutical Corp., priority 2019, dated 2025).

One assay has as its target HDAC6 human recombinant (Homo sapiens (Human), UniProt Q9UBN7). Description: HDAC enzyme activity inhibition (in vitro), HDAC6 assay. The assay is classed as biochemical. Particulars: samples at 0.1, 1, 10, 100 and 1000 nM; 37° C. 60 minutes; fluorescence Ex 390, Em 460.
The target of a further assay is HDAC1 (Homo sapiens (Human), UniProt Q13547). As to the kind of experiment: HDAC enzyme activity inhibition (in vitro), HDAC1 Fluorimetric Drug Discovery Assay Kit. Particulars: samples at 100, 1000 and 10000 nM; 37° C. 60 minutes; fluorescence Ex 390, Em 460. The assay is classed as biochemical.
HDAC1, sequence (Q13547 whole entry): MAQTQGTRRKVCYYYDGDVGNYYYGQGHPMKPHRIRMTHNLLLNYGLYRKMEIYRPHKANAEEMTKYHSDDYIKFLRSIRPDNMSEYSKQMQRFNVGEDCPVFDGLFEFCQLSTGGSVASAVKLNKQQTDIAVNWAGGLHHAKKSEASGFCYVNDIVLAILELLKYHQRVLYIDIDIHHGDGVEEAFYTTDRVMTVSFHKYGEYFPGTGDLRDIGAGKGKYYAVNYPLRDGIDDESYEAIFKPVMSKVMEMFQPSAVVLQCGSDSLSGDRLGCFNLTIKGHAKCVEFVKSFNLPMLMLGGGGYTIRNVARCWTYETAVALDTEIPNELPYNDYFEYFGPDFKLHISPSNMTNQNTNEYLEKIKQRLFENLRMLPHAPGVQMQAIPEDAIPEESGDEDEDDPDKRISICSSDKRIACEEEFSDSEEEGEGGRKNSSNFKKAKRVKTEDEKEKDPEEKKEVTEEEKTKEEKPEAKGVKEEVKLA

HDAC6 human recombinant, sequence (Q9UBN7 whole entry): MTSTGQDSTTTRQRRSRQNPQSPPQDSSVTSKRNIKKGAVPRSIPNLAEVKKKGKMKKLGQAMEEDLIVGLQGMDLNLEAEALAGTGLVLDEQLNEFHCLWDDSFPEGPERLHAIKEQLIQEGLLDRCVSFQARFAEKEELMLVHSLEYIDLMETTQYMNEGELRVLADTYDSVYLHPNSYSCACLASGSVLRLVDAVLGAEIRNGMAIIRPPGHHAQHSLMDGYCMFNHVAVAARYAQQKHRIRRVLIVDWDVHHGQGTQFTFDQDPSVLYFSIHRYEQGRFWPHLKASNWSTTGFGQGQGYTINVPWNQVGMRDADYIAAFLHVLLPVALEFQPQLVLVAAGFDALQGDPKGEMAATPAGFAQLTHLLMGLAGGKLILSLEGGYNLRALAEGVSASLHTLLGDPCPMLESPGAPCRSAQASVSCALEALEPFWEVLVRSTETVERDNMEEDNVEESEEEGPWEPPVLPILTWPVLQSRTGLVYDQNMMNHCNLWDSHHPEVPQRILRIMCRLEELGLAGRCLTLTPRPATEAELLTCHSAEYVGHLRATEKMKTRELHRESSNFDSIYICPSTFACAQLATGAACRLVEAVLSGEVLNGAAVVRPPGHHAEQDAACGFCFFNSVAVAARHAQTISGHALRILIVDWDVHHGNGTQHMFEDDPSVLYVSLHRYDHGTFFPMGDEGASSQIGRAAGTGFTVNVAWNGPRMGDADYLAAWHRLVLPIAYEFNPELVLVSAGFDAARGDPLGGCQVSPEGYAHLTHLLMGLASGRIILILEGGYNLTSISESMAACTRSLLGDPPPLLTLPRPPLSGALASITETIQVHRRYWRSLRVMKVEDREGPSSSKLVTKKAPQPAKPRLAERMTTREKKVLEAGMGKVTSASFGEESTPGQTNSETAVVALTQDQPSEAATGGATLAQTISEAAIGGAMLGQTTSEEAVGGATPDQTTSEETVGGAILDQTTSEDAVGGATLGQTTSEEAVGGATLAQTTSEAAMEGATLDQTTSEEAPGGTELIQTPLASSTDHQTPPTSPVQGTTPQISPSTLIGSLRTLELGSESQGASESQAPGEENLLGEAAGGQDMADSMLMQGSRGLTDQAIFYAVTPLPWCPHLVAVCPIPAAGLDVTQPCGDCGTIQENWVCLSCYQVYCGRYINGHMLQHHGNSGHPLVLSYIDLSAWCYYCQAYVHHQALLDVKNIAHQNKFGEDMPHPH

Consider `CCC(F)(F)CN1CCN(c2ccc3c(c2)C(C)(C)C(=O)N(Cc2ccc(-c4nnc(C(F)F)o4)cn2)C3=O)CC1` [Compound 139, 6-(4-(2,2-difluorobutyl)piperazine-1-yl)-2-((5-(5-(difluoromethyl)-1,3,4-oxadiazole-2-yl)pyridine-2-yl)methyl)-4,4-dimethylisoquinoline-1,3(2H,4H)-dione], for which the 50% inhibitory concentration (IC50) at HDAC6 human recombinant is 683 nM; on HDAC1 it was greater than 10000 nM.

As to `CC(=O)N1CCN(c2ccc3c(c2)C(C)(C)C(=O)N(Cc2ccc(-c4nnc(C(F)F)o4)cn2)C3=O)CC12CC2` [Compound 81, 6-(4-acetyl-4,7-diazaspiro[2.5]octane-7-yl)-2-((5-(5-(difluoromethyl)-1,3,4-oxadiazole-2-yl)pyridine-2-yl)methyl)-4,4-dimethylisoquinoline-1,3(2H,4H)-dione], the concentration for half-maximal inhibition (IC50) at HDAC6 human recombinant was 11 nM; against HDAC1, greater than 10000 nM.

Take `O=C1c2ccccc2C2(CCC2)C(=O)N1Cc1ccc(-c2nnc(C(F)F)o2)cc1` [Compound 5, 2′-(4-(5-(difluoromethyl)-1,3,4-oxadiazole-2-yl)benzyl)-1′H-spiro[cyclobutane-1,4′-isoquinoline]-1′,3′(2′H)-dione]: the IC50 on HDAC6 human recombinant was 513 nM; against HDAC1, greater than 10000 nM.

Take `CN1CCN(c2ccc3c(c2)C(C)(C)C(=O)N(Cc2ccc(-c4nnc(C(F)F)o4)cn2)C3=O)CC12CC2` [Compound 80, 2-((5-(5-(difluoromethyl)-1,3,4-oxadiazole-2-yl)pyridine-2-yl)methyl)-4,4-dimethyl-6-(4-methyl-4,7-diazaspiro[2.5]octane-7-yl)isoquinoline-1,3(2H,4H)-dione]: the IC50 on HDAC6 human recombinant is 17 nM; against HDAC1, greater than 10000 nM.

On to `CC(C)N1CCN(c2ccc3c(c2)C(=O)N(Cc2ccc(-c4nnc(C(F)F)o4)cn2)C(=O)C3(C)C)CC1` [Compound 119, 2-((5-(5-(difluoromethyl)-1,3,4-oxadiazole-2-yl)pyridine-2-yl)methyl)-7-(4-isopropylpiperazine-1-yl)-4,4-dimethylisoquinoline-1,3(2H,4H)-dione], for which the IC50 at HDAC6 human recombinant was 21 nM; at HDAC1 it was greater than 10000 nM.

`CC1(C)C(=O)N(Cc2ccc(-c3nnc(C(F)F)o3)cn2)C(=O)c2cc(-c3ccco3)ccc21` [Compound 113, 2-((5-(5-(difluoromethyl)-1,3,4-oxadiazole-2-yl)pyridine-2-yl)methyl)-7-(furan-2-yl)-4,4-dimethylisoquinoline-1,3(2H,4H)-dione]: the 50% inhibitory concentration (IC50) was 43 nM on HDAC6 human recombinant and greater than 10000 nM at HDAC1.

On to `CCN1CC=C(c2ccc3c(c2)C(C)(C)C(=O)N(Cc2ncc(-c4nnc(C(F)F)o4)cn2)C3=O)CC1` [Compound 155, 2-((5-(5-(difluoromethyl)-1,3,4-oxadiazole-2-yl)pyrimidine-2-yl)methyl)-6-(1-ethyl-1,2,3,6-tetrahydropyridine-4-yl)-4,4-dimethylisoquinoline-1,3(2H,4H)-dione], for which the half-maximal inhibitory concentration (IC50) is 185 nM on HDAC6 human recombinant and greater than 10000 nM against HDAC1.

For `O=c1c2ccccc2n(CCN2CCCCC2)c(=O)n1Cc1ccc(-c2nnc(C(F)F)o2)cn1` [Compound 9, 3-((5-(5-(difluoromethyl)-1,3,4-oxadiazole-2-yl)pyridine-2-yl)methyl)-1-(2-(piperidine-1-yl)ethyl)quinazoline-2,4(1H,3H)-dione], the IC50 is 126 nM at HDAC6 human recombinant and greater than 10000 nM against HDAC1.

On to `O=c1c2ccccc2n(CCn2cccn2)c(=O)n1Cc1ccc(-c2nnc(C(F)F)o2)cn1` [Compound 21, 1-(2-(1H-pyrazole-1-yl)ethyl)-3-((5-(5-(difluoromethyl)-1,3,4-oxadiazole-2-yl)pyridine-2-yl)methyl)quinazoline-2,4(1H,3H)-dione], for which the IC50 on HDAC6 human recombinant was 273 nM; against HDAC1 it was greater than 10000 nM.

For `CCCCCN1CCN(c2ccc3c(c2)C(C)(C)C(=O)N(Cc2ccc(-c4nnc(C(F)F)o4)cn2)C3=O)CC1` [Compound 45, 2-((5-(5-(difluoromethyl)-1,3,4-oxadiazole-2-yl)pyridine-2-yl)methyl)-4,4-dimethyl-6-(4-pentylpiperazine-1-yl)isoquinoline-1,3(2H,4H)-dione], the IC50 was 156 nM at HDAC6 human recombinant and greater than 10000 nM at HDAC1.

As to `Cc1ccc(-c2ccc3c(c2)C(=O)N(Cc2ccc(-c4nnc(C(F)F)o4)cn2)C(=O)C3(C)C)o1` [Compound 114, 2-((5-(5-(difluoromethyl)-1,3,4-oxadiazole-2-yl)pyridine-2-yl)methyl)-4,4-dimethyl-7-(5-methylfuran-2-yl)isoquinoline-1,3(2H,4H)-dione], the half-maximal inhibitory concentration (IC50) at HDAC6 human recombinant was 77 nM; against HDAC1, greater than 10000 nM.

For the molecule `Cn1c(=O)n(Cc2ccc(-c3nnc(C(F)F)o3)cn2)c(=O)c2cc(-c3ccoc3)ccc21` [Compound 88, 3-((5-(5-(difluoromethyl)-1,3,4-oxadiazole-2-yl)pyridine-2-yl)methyl)-6-(furan-3-yl)-1-methylquinazoline-2,4(1H,3H)-dione], the half-maximal inhibitory concentration (IC50) is 21 nM at HDAC6 human recombinant and greater than 10000 nM at HDAC1.

For the molecule `CCN1CCC(c2ccc3c(c2)C(C)(C)C(=O)N(Cc2ncc(-c4nnc(C(F)F)o4)cn2)C3=O)CC1` [Compound 156, 2-((5-(5-(difluoromethyl)-1,3,4-oxadiazole-2-yl)pyrimidine-2-yl)methyl)-6-(1-ethylpiperidine-4-yl)-4,4-dimethylisoquinoline-1,3(2H,4H)-dione], the IC50 at HDAC6 human recombinant was 56 nM; against HDAC1 it was greater than 10000 nM.

Take `CC1(C)C(=O)N(Cc2ccc(-c3nnc(C(F)F)o3)cn2)C(=O)c2c(N3CCOCC3)cccc21` [Compound 83, 2-((5-(5-(difluoromethyl)-1,3,4-oxadiazole-2-yl)pyridine-2-yl)methyl)-4,4-dimethyl-8-morpholinoisoquinoline-1,3(2H,4H)-dione]: the IC50 was 98 nM at HDAC6 human recombinant and greater than 10000 nM against HDAC1.
